Laboratory results: patent publication US10005735B2, “Inhibitors of RPN11” (California Institute of Technology, priority 2015, dated 2018)

Key:
[1] = target: T1, Rpn11 (Homo sapiens (Human), UniProt O00487); assay: Rpn11 activity assay (fluorescence polarization, Ub4-pepOG cleavage by 26S proteasome); assay type: biochemical; details: Table 2; 1 mM DTT in assay reduces disulfides to monomeric active species
Text: Candidate compounds according to embodiments of the present invention were synthesized as described herein. […] In brief, this Rpn11 bioassay employs a fluorescent polarization readout based on the ability of the 26S proteasome to cleave the protein substrate including four tandem ubiquitin proteins fused to a peptide having a unique cysteine labeled with a fluorophore. Cleavage of this substrate by Rpn11 at the junction between the fourth ubiquitin and the peptide, releases the low molecular weight fluorescent peptide. Accordingly, inhibition of fluorescence correlates with inhibition of Rpn11. Inhibition is reported as the half maximal inhibitory concentration (IC50) for the candidate compound.
Rpn11 Activity Assay. […] In brief, in order to measure the Rpn11 activity, a synthetic peptide substrate, termed Ub4-pepOG, was engineered. […] Peptide substrate Ub4-pepOG consists of only 30 amino acids and therefore the decrease of polarization is mainly from deubiquitination but not the proteolysis of the peptide. Fluorescence polarization assay was performed in a low-volume 384 well solid black plate where the components are added in the follow sequence: 1) 5 μl compound in 3% DMSO or 3% DMSO control 2) 5 μl 26S proteasome (Enzo Life Sciences Inc, NY). […] Fluorescence polarization is measured using a PHERAstar (BMG labtech, Ortenberg, Germany) plate reader with excitation of 480 nm and emission of 520 nm filter set. […] Rpn11 activity was normalized to DMSO control and fitted using does-response curve.

[2] = target: Csn5 (Homo sapiens (Human), UniProt Q92905); assay: Csn5 activity assay (fluorescence polarization, SCF^skp2-Nedd8OG, COP9 Signalosome Complex); assay type: biochemical; details: Table 2
Method: Csn5 Activity Assay. […] In brief, a fluorescent substrate termed SCF^skp2-Nedd8OG was produced to measure CSN5 activity in vitro. This assay measures the decrease in fluorescence polarization due to the decrease in apparent molecular weight of Oregon Green (OG) fluorophore (from the ˜175 kDa substrate to ˜9 kDa Nedd8OG) as a result of Csn5-mediated cleavage of the isopeptide bond that links Nedd8OG to SCF^Skp2. The assay was performed in a low-volume 384 well solid black plate comprising equal volumes of compound, substrate (SCF^skp2-Need8OG) and enzyme (purified COP9 Signalosome Complex, CSN). Fluorescence polarization was recorded using the same setting as for the Rpn11 activity assay.

[3] = target: AMSH (Homo sapiens (Human), UniProt O95630); assay: AMSH activity assay (DiUb^K63TAMRA cleavage, fluorescence); assay type: biochemical; details: Table 2
Text: AMSH Activity Assay. AMSH is known to selectively cleave ubiquitin chains in which the ubiquitins are joined via K63 of the proximal ubiquitin linked by an isopeptide bond to the carboxy terminus of the distal ubiquitin. […] In brief, DiUb^K63TAMRA was labeled with quench pairs TAMRA/QXL.

[4] = tested on: Ub^G76V-GFP; assay: Reporter degradation assay in Hela cells expressing Ub^G76V-GFP; assay type: cell-based; details: after MG132 removal, cycloheximide chase
Method: Characterization of the Compound Activity in Cells. […] After 4 hours, MG132 was removed and a cycloheximide (CHX) chase was initiated +/− different concentrations of test compound and the rate of reporter degradation was evaluated by monitoring GFP fluorescence by high throughput microscopy. The rate of fluorescence decrease was normalized to DMSO control and analyzed using does-response equation.

[5] = target: T1, Rpn11; assay: Rpn11 activity assay (fluorescence polarization, Ub4-pepOG cleavage by 26S proteasome); assay type: biochemical; details: does not inhibit Csn5 or AMSH with the same potency as Rpn11

T1 sequence (O00487 whole entry, looked up, the tested form may be a part): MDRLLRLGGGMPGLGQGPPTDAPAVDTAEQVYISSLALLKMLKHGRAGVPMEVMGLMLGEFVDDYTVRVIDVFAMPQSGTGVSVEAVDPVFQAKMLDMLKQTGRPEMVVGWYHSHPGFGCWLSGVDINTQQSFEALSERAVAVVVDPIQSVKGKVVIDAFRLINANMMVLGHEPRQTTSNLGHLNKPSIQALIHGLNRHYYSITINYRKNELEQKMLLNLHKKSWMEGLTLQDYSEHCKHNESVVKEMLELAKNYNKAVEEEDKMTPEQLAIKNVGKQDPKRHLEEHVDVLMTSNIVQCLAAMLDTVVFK
Sequence of AMSH (O95630 whole entry): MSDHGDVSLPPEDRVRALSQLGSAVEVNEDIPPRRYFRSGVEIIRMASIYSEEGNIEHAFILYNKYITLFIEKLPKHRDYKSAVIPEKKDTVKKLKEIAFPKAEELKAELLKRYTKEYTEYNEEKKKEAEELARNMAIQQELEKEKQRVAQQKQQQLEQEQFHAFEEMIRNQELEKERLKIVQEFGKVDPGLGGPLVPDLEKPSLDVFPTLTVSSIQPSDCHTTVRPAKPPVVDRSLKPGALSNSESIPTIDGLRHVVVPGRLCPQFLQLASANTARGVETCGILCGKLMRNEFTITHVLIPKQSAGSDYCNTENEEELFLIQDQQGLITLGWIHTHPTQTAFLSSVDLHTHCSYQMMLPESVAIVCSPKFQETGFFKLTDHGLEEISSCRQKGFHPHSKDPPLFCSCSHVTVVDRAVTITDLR

Compound | IC50 [1] [nM] | IC50 [2] [nM] | IC50 [3] [nM] | IC50 [4] [nM] | specificity for Rpn11 versus Csn5 and/or AMSH (in words) [5] | IC50 ([4]; Homo sapiens) [nM]
O=C(NCc1ccncc1)c1cnc2c(SSc3cccc4cc(C(=O)NCc5ccncc5)cnc34)cccc2c1 [Compound 15, 8,8′-Disulfanediylbis(N-(pyridin-4-ylmethyl)quinoline-3-carboxamide)] | 200 | 7000 | 500 | > 10000 | specific inhibitors of Rpn11 | –
O=C(NCc1ccc(C(F)(F)F)cc1)c1cnc2c(SSc3cccc4cc(C(=O)NCc5ccc(C(F)(F)F)cc5)cnc34)cccc2c1 [Compound 18, 8,8′-Disulfanediylbis(N-(4-(trifluoromethyl)benzyl)quinoline-3-carboxamide)] | 700 | > 100000 | 3400 | > 10000 | specific inhibitors of Rpn11 | –
NC(=O)c1cnc2c(SSc3cccc4cc(C(N)=O)cnc34)cccc2c1 [Compound 1, 8,8′-Disulfanediylbis(quinoline-3-carboxamide)] | 1000 | 15000 | 1200 | – | specific inhibitors of Rpn11 | 1200
O=C(NCCc1cccs1)c1ccnc2c(SSc3cccc4c(C(=O)NCCc5cccs5)ccnc34)cccc12 [Compound 24, 8,8′-disulfanediylbis(N-(2-(thiophen-2-yl)ethyl)quinoline-4-carboxamide)] | 700 | 7300 | 1000 | 1100 | specific inhibitors of Rpn11 | –
